Measured values taken from US8820316B2, “Drug delivery apparatus” (Respironics Respiratory Drug Delivery (UK) Ltd, priority 2000, dated 2014).

Columns and labels:
[1] = Budesonide study in 125 children with asthma using the system of the invention, asthma symptom score; assay type: in vivo; details: Improved Invention System, 200/50 μg; for daytime asthma symptom score, Baseline at entry / daytime asthma symptom score, End of Study: visual analogue range 0-3
Procedure: A study in 125 children with asthma using the system disclosed in this patent delivered three different regimes of a short duration (2-12 weeks) high delivered daily dose 200 μg followed by a long duration (12-22 weeks) low daily dose delivered dose 50 μg. Their treatment compliance was monitored electronically and their asthma symptoms by the parents using a visual analogue score. The treatment compliance over the study was 80/90% and the asthma scores reduced from a baseline of 1.23/1.27 to 0.23/0.43.

[2] = Budesonide study in 481 children with asthma using conventional nebulizers, asthma symptom score; assay type: in vivo; details: Conventional Nebuliser; for daytime asthma symptom score, End of Study: 12 weeks; for daytime asthma symptom score, End of Study / daytime asthma symptom score, Baseline at entry: visual analogue range 0-3
Procedure: The study in 481 children with asthma using conventional nebulizers delivered five different regimes. Nominal nebulizer doses were in the range 250/1000 μg daily and placebo over a 12 week period. Their asthma symptoms by the parents using a visual analogue scores, the asthma scores reduced from 1.21/1.33 to 0.87/0.93.

[3] = system: susceptible bacteria in the endobronchial space; details: 200-400 mg aminoglycoside in about 5 ml, 0.225% NaCl, pH 5.5-6.5, aerosolised (WO 96/12471); cited from earlier work
Pseudomonas aeriginosa = details: typically required, for 90% of organisms; to be maintained for 120 minutes; cited from earlier work
[4] = Sputum tobramycin concentration, conventional nebulizer versus high compliance system; assay type: in vivo, patients; details: human, inhaled
Procedure: To compare the performance of a conventional nebulizer and a high compliance system according to this invention using Tobramycin 8 patients received either 300 mg/5 ml via conventional nebulizer or 30 mg delivered dose via the high compliance system. The mean sputum tobramycin concentrations at 2 hours were 128 μg/g for the conventional nebulizer and 98 μg/g for the high compliance system. This study may indicate that an even lower dose may be acceptable to achieve the MIC level when delivered with a high compliance system such as disclosed in this invention, in the range 5-30 mg Tobramycin.

[5] = when starting rhDNase therapy; cited from earlier work
[6] = rhDNase response (FEV1) in adult CF patients who previously failed to respond; assay type: in vivo
From the text: Mean change in FEV1 was 11.51%.

Molecule: CCCC1O[C@@H]2C[C@H]3[C@@H]4CCC5=CC(=O)C=C[C@]5(C)[C@H]4[C@@H](O)C[C@]3(C)[C@]2(C(=O)CO)O1 (stereo partly shown) [Budesonide]
- daytime asthma symptom score, Change ([1]; 2/22 weeks): −1
- daytime asthma symptom score, Baseline at entry ([1]; 2/22 weeks): 1.23
- daytime asthma symptom score, End of Study ([1]; 2/22 weeks): 0.23
- daytime asthma symptom score, Change ([1]; 6/18 weeks): −0.83
- daytime asthma symptom score, Baseline at entry ([1]; 6/18 weeks): 1.26
- daytime asthma symptom score, End of Study ([1]; 6/18 weeks): 0.43
- daytime asthma symptom score, Change ([1]; 12/12 weeks): −0.91
- daytime asthma symptom score, Baseline at entry ([1]; 12/12 weeks): 1.27
- daytime asthma symptom score, End of Study ([1]; 12/12 weeks): 0.36
- daytime asthma symptom score, Change ([2]; 250 μg once daily): −0.28
- daytime asthma symptom score, End of Study ([2]; 250 μg once daily): 0.93
- daytime asthma symptom score, Baseline at entry ([2]; 250 μg once daily): 1.21
- daytime asthma symptom score, Change ([2]; 250 μg twice daily): −0.4
- daytime asthma symptom score, End of Study ([2]; 250 μg twice daily): 0.91
- daytime asthma symptom score, Baseline at entry ([2]; 250 μg twice daily): 1.31
- daytime asthma symptom score, Change ([2]; 500 μg twice daily): −0.46
- daytime asthma symptom score, End of Study ([2]; 500 μg twice daily): 0.87
- daytime asthma symptom score, Baseline at entry ([2]; 500 μg twice daily): 1.33
- daytime asthma symptom score, Change ([2]; 1000 μg once daily): −0.37
- daytime asthma symptom score, End of Study ([2]; 1000 μg once daily): 0.91
- daytime asthma symptom score, Baseline at entry ([2]; 1000 μg once daily): 1.28

Molecule: NC[C@H]1O[C@H](O[C@H]2[C@H](O)[C@@H](O[C@H]3O[C@H](CO)[C@@H](O)[C@H](N)[C@H]3O)[C@H](N)C[C@@H]2N)[C@H](N)C[C@@H]1O [Tobramycin]
- suppresses and inhibits susceptible bacteria [3]: at least 95%
- MIC level (Pseudomonas aeriginosa): > 16 µg/mL
- concentration at 2 h ([4]; 30 mg delivered dose via the high compliance system): 98000 ng/g
- concentration at 2 h ([4]; 300 mg/5 ml via conventional nebulizer): 128000 ng/g

B1: rhDNase: Pulmozyme (recombinant, human DNase), mucoactive drug for cystic fibrosis lung disease (protein, UniProt P24855 23-282, looked up)
Deoxyribonuclease-1: LKIAAFNIQTFGETKMSNATLVSYIVQILSRYDIALVQEVRDSHLTAVGKLLDNLNQDAPDTYHYVVSEPLGRNSYKERYLFVYRPDQVSAVDSYYYDDGCEPCGNDTFNREPAIVRFFSRFTEVREFAIVPLHAAPGDAVAEIDALYDVYLDVQEKWGLEDVMLMGDFNAGCSYVRPSQWSSIRLWTSPTFQWLIPDSADTTATPTHCAYDRIVVAGMLLRGAVVPDSALPFNFQAAYGLSDQLAQAISDHYPVEVMLK
modifications: dornase alfa
- patients showing a greater than 10% change in FEV1 over baseline [5]: Approximately 38%
- Mean change in FEV1 ([6]; 10 days, 0.25 ml/0.25 mg of the formulation, high compliance delivery system): 11.51%
- mean response to therapy, change in FEV1 ([6]; previous rhDNase therapy with conventional nebulizer devices): 4.17%
